# Experiments:
# [1] = tested on: ICAM-1 mRNA; assay: ICAM-1 mRNA expression in muscularis externae of intestinal grafts (real time RT-PCR); type: in vivo, rat; conditions: SITx recipients treated with CO, 4 hours after reperfusion
# Method: The effects of inhalation of CO on transplant-induced pro-inflammatory and anti-inflammatory gene expression was assessed in muscularis extracts by RT-PCR. Muscularis extemae was collected from normal intestine and transplanted grafts 4 hours postoperatively and snap frozen in liquid nitrogen. This time point falls within the range of maximum inflammatory mediator expression that occurs between 3 and 6 hours following abdominal incision. Total RNA extraction was performed using the guanidium-thiocyanate phenol-chloroform extraction method as described previously (Eskandari et al., Am. J. Clin. Pathol. 75(3):367-370 (1997)). RNA pellets were resuspended in RNA-secure resuspension solution (Ambion Inc., Austin, Tex.), followed by removal of potentially contaminating DNA by treatment with DNase I (DNA-Free Kit, Ambion Inc., Austin, Tex.). Equal aliquots (5 μg) of total RNA from each sample were quantified by spectrophotometry (wavelength […]) and aliquoted at a concentration of 40 ng/μl. Peak mRNA expression was quantified in duplicate by SYBR Green two-step, real-time RT-PCR. […] Real-time PCR data were plotted as the ΔRn, fluorescence signal versus the cycle number. […] Quantification of mRNA expression was normalized to GAPDH and calculated relative to control using the comparative CT method (Schmittgen et al., J. Biochem. Biophys. Methods 46(1-2):69-8 (2000)). […]
# [2] = tested on: HO-1 mRNA; assay: Example 3 HO-1 mRNA by SYBR green real time RT-PCR; type: in vivo, mouse; conditions: IM-CO mice
# Method: Ileus was induced in mice by gentle manipulation of the small intestine. An incision was made to expose the abdominal cavity of the mouse, and bowel manipulation was performed by gentle poking and prodding of the small intestine (see, e.g., Schwarz et al., Gastroenterology 121(6):1354-1357 (2001)). […] Mice were exposed to CO by inhalation (250 and 500 ppm) for 1 hour immediately prior to intestinal manipulation and during the entire 24-hour recovery period. Intestinal contractility was assessed in vitro by measuring circular muscle strip contractions in response to bethanechol (0.3-300 μM) and in vivo by determining intestinal transit from the distribution of orally-fed, fluorescein-labeled dextran and calculating geometric center as described in Example 1 above. HO-1 and IL-10 mRNA expression were determined by SYBR green real time RT-PCR from extracts of muscularis extemae, as described in Example 1 above. Release of nitric oxide (NO), a potent inhibitor of smooth muscle contractility, was estimated by measuring serum total nitrite, also described in Example 1 above.
compound,measurement,setting,value
"[C-]#[O+] [CO, carbon monoxide]",ICAM-1 expression,[1],unchanged
same,HO-1 expression versus controls,[2],150 fold
same,HO-1 increase in expression over IM alone,[2]; early induction,300%
